From the supplement of paper PMC10307832

What was measured:
Test in all cases: relative viability (nuclei count vs DMSO), 5 days (fraction); higher = more cells survive
Bleomycin + Navitoclax = compound: CC1=C(N=C(N=C1N)[C@H](CC(=O)N)NC[C@@H](C(=O)N)N)C(=O)N[C@@H]([C@H](C2=CN=CN2)OC3C(C(C(C(O3)CO)O)O)OC4C(C(C(C(O4)CO)O)OC(=O)N)O)C(=O)N[C@H](C)[C@H]([C@H](C)C(=O)N[C@@H]([C@@H](C)O)C(=O)NCCC5=NC(=CS5)C6=NC(=CS6)C(=O)NCCC[S+](C)C)O [Bleomycin] + CC1(C)CCC(c2ccc(Cl)cc2)=C(CN2CCN(c3ccc(C(=O)NS(=O)(=O)c4ccc(N[C@H](CCN5CCOCC5)CSc5ccccc5)c(S(=O)(=O)C(F)(F)F)c4)cc3)CC2)C1 [Navitoclax] (partner 0.5 µM); conditions: main component drawn
In short: (§1)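 Lung cancer cell lines were pin-tool dosed in 1536-well plates on the day after seeding, with either a lone drug or a fixed anchor-drug dose plus five library-drug doses (not always all listed) in √10 steps. Nuclei were counted on 4× images after 5 days. Relative viability is the ratio of treated-well to vehicle-well nuclei counts, with each value a median of duplicate plates.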

Bleomycin + Foretinib = compound: CC1=C(N=C(N=C1N)[C@H](CC(=O)N)NC[C@@H](C(=O)N)N)C(=O)N[C@@H]([C@H](C2=CN=CN2)OC3C(C(C(C(O3)CO)O)O)OC4C(C(C(C(O4)CO)O)OC(=O)N)O)C(=O)N[C@H](C)[C@H]([C@H](C)C(=O)N[C@@H]([C@@H](C)O)C(=O)NCCC5=NC(=CS5)C6=NC(=CS6)C(=O)NCCC[S+](C)C)O [Bleomycin] + COc1cc2c(Oc3ccc(NC(=O)C4(C(=O)Nc5ccc(F)cc5)CC4)cc3F)ccnc2cc1OCCCN1CCOCC1 [Foretinib] (partner 0.25 µM); conditions: main component drawn
In short: as §1

Etoposide = compound: COc1cc([C@@H]2c3cc4c(cc3[C@@H](O[C@@H]3O[C@@H]5CO[C@@H](C)O[C@H]5[C@H](O)[C@H]3O)[C@H]3COC(=O)[C@H]23)OCO4)cc(OC)c1O [Etoposide]
In short: (§2)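 Vehicle-anchored 1536-well plates of lung cancer cell lines, held overnight at 37 °C, were pinned with five library-drug doses (not always all listed) spaced by √10. No medium change followed over the next 5 days, after which the cells were fixed, permeabilised and Hoechst-stained together and imaged at 4×. Nuclei were counted with MetaXpress, and viability is treated-well nuclei over vehicle-well nuclei, taken as a median across plates. Plates passed with control CV below 25% and at least one doubling.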

Bleomycin = compound: CC1=C(N=C(N=C1N)[C@H](CC(=O)N)NC[C@@H](C(=O)N)N)C(=O)N[C@@H]([C@H](C2=CN=CN2)OC3C(C(C(C(O3)CO)O)O)OC4C(C(C(C(O4)CO)O)OC(=O)N)O)C(=O)N[C@H](C)[C@H]([C@H](C)C(=O)N[C@@H]([C@@H](C)O)C(=O)NCCC5=NC(=CS5)C6=NC(=CS6)C(=O)NCCC[S+](C)C)O [Bleomycin]; conditions: main component drawn
In short: as §2

Cell Line | relative viability (Bleomycin + Navitoclax; first compound 0.01 µM) | relative viability (Bleomycin + Navitoclax; first compound 0.03162 µM) | relative viability (Bleomycin + Navitoclax; first compound 0.1 µM) | relative viability (Bleomycin + Navitoclax; first compound 0.3162 µM) | relative viability (Bleomycin + Navitoclax; first compound 1 µM) | relative viability (Bleomycin + Foretinib; first compound 0.01 µM) | relative viability (Bleomycin + Foretinib; first compound 0.03162 µM) | relative viability (Bleomycin + Foretinib; first compound 0.1 µM) | relative viability (Bleomycin + Foretinib; first compound 0.3162 µM) | relative viability (Bleomycin + Foretinib; first compound 1 µM) | relative viability (Etoposide; 0.01 µM) | relative viability (Etoposide; 0.03162 µM) | relative viability (Etoposide; 0.1 µM) | relative viability (Etoposide; 0.3162 µM) | relative viability (Etoposide; 1 µM) | relative viability (Bleomycin; 0.01 µM) | relative viability (Bleomycin; 0.03162 µM) | relative viability (Bleomycin; 0.1 µM) | relative viability (Bleomycin; 0.3162 µM) | relative viability (Bleomycin; 1 µM)
NCI-H2347 | 0.75 | 0.883 | 0.663 | 0.259 | 0.402 | 0.852 | 0.97 | 0.628 | 0.319 | 0.692 | 1 | 1.01 | 0.733 | 0.541 | 0.45 | 0.915 | 1.03 | 0.918 | 0.461 | 0.558
HCC-366 | 0.74 | 0.489 | 0.268 | 0.0573 | 0.0178 | 0.872 | 0.702 | 0.337 | 0.0868 | 0.0636 | 0.992 | 1.07 | 0.769 | 0.377 | 0.0702 | 0.923 | 0.722 | 0.591 | 0.182 | 0.0724
EMC-BAC-2 | 1.04 | 1.18 | 0.979 | 0.661 | 0.399 | 0.859 | 0.74 | 0.63 | 0.35 | 0.247 | 0.964 | 0.959 | 0.453 | 0.278 | 0.234 | 0.72 | 0.91 | 0.747 | 0.418 | 0.302
NCI-H3122 | 1.08 | 1.03 | 0.96 | 0.79 | 0.547 | 0.956 | 0.99 | 0.914 | 0.483 | 0.357 | 1 | 0.995 | 0.983 | 0.854 | 0.333 | 1 | 0.993 | 0.928 | 0.528 | 0.358
NCI-H1944 | 0.762 | 0.77 | 0.594 | 0.423 | 0.233 | 0.55 | 0.391 | 0.384 | 0.225 | 0.203 | 0.973 | 1.13 | 0.729 | 0.522 | 0.273 | 0.53 | 0.481 | 0.397 | 0.232 | 0.184
EPLC-272H | 0.793 | 0.888 | 0.826 | 1.29 | 0.159 | 0.61 | 0.653 | 0.51 | 0.17 | 0.1 | 1.05 | 1.09 | 0.658 | 0.815 | 0.513 | 0.811 | 0.882 | 0.434 | 0.132 | 0.151
EBC-1 | 0.392 | 0.527 | 0.379 | 0.274 | 0.269 | 0.104 | 0.106 | 0.107 | 0.106 | 0.105 | 0.977 | 1.06 | 0.714 | 0.872 | 0.562 | 0.893 | 0.951 | 0.905 | 0.836 | 0.602
NCI-H1915 | 0.726 | 0.78 | 0.732 | 0.537 | 0.212 | 0.929 | 0.885 | 0.763 | 0.431 | 0.257 | 1 | 1.1 | 0.891 | 0.889 | 0.684 | 0.739 | 0.74 | 0.489 | 0.287 | 0.165
NCI-H647 | 0.408 | 0.263 | 0.203 | 0.0968 | 0.0761 | 0.482 | 0.308 | 0.212 | 0.0979 | 0.073 | 0.815 | 1.07 | 0.815 | 0.442 | 0.195 | 0.397 | 0.369 | 0.237 | 0.125 | 0.0764
NCI-H441 | – | 0.733 | 0.574 | 0.389 | 0.339 | 0.72 | 0.613 | 1.08 | 0.623 | 0.46 | 0.923 | 1.03 | 0.751 | 0.308 | 0.172 | 0.626 | 0.922 | 0.862 | 0.651 | 0.42
NCI-H1299 | 0.977 | 1.01 | 0.922 | 0.396 | 0.376 | 1.07 | 1.08 | 0.934 | 0.497 | 0.277 | 1.01 | 0.995 | 1.07 | 0.932 | 0.779 | 0.937 | 1.03 | 0.936 | 0.601 | 0.287
NCI-H23 | 0.47 | 0.284 | 0.276 | 0.155 | 0.181 | 0.699 | 0.586 | 0.408 | 0.247 | 0.218 | 1.02 | 1.03 | 0.671 | 0.371 | 0.212 | 0.458 | 0.439 | 0.304 | 0.218 | 0.161
IA-LM | 0.498 | 0.673 | 0.611 | 0.28 | 0.205 | 1.09 | 0.96 | 0.899 | 0.56 | 0.241 | 0.88 | 0.946 | 0.742 | 0.875 | 0.655 | 0.873 | 0.852 | 0.839 | 0.347 | 0.356
SK-MES-1 | 1.12 | 0.97 | 0.736 | 0.278 | 0.18 | 0.907 | 0.846 | 0.765 | 0.357 | 0.237 | 0.978 | 1.06 | 0.9 | 0.587 | 0.258 | 0.861 | 0.885 | 0.77 | 0.371 | 0.262
